Literature values, collected in patent US8133194B2 (Henry Ford Health System, priority 2006, dated 2012).

Key:
[1] = ICU patients
[2] = as stated for pre-filter fluid pH
[3] = under normal conditions, equal to the renal plasma flow

K(b) liver clearance of citrate [1] [L/min] | pKa3 [2] | PAH clearance [3] | SMILES
0.2 to 0.5 | 6.3 |  | O=C(O)CC(O)(CC(=O)O)C(=O)O [Citrate]
 |  | up to 0.6 L/minute | Nc1ccc(C(=O)NCC(=O)O)cc1 [PAH, para-amino-hippuric acid]
